Consider ten compounds from PMC6386544 (Infection and Immunity, 2019).

Where two headings read alike, the source gives them in different places.

For assay [1], the target named is T1, ToxB-B2 (Clostridioides difficile, UniProt P18177).
T1 construct: gene tcdB
As to conditions: glycan 160 nM to 100 μM.

The target of assay [2] is T2, ToxA-B1 (Clostridioides difficile, UniProt P16154).
T2 construct: gene tcdA
As to conditions: glycan 160 nM to 100 μM.

The target in assay [3] is T3, ToxA-B3 (Clostridioides difficile, UniProt P16154).
T3 construct: gene tcdA
As to conditions: glycan 160 nM to 100 μM.

Assay [4] concerns the target T4, ToxB-GT (Clostridioides difficile, UniProt P18177).
T4 construct: gene tcdB
The settings on record: glycan 160 nM to 100 μM.

In assay [5] the target is T1, ToxB-B2. Description: biochemical.
Assay [6] has as its target T2, ToxA-B1. Description: biochemical.
For assay [7], the target named is T3, ToxA-B3. The assay can be described thus: biochemical.
The target of assay [8] is T4, ToxB-GT. The assay can be described thus: biochemical.
Where [9] appears, read: read-out: Protein binding (KD)^a / ToxB-B2.
Setting [10] is: read-out: Protein binding (KD)^a / ToxA-B1.
Setting [11] is: read-out: Protein binding (KD)^a / ToxA-B3.

As for `C[C@@H]1O[C@@H](O[C@H]2[C@H](O[C@H]3[C@H](O)[C@@H](O)C(O)O[C@@H]3CO)O[C@H](CO)[C@H](O)[C@@H]2O[C@H]2O[C@H](CO)[C@H](O)[C@H](O)[C@H]2O)[C@@H](O)[C@H](O)[C@@H]1O` (some centres unmarked) [Blood group B], the Kd was 42.9 ± 59.1 µM in assay [1] (setting [9]), 11.4 ± 1.08 µM in assay [2] (setting [10]), 14.4 ± 3.2 µM in assay [3] (setting [11]) and over 100 µM in assay [4].

Turning to `CC(=O)N[C@H]1[C@H](O[C@H]2[C@@H](O)[C@@H](CO)OC(O)[C@@H]2O)O[C@H](CO)[C@@H](O[C@@H]2O[C@@H](C)[C@@H](O)[C@@H](O)[C@@H]2O)[C@@H]1O[C@@H]1O[C@H](CO)[C@H](O)[C@H](O)[C@H]1O` (some centres unmarked) [Lewis A], the Kd was 0.579 ± 0.037 µM in assay [1] (setting [9]), 3.38 ± 0.95 µM in assay [2] (setting [10]), 1.65 ± 0.62 µM in assay [3] (setting [11]) and over 100 µM in assay [4].

Take `CC(=O)N[C@H]1[C@H](O[C@H]2[C@@H](O)[C@@H](CO)OC(O)[C@@H]2O)O[C@H](CO)[C@@H](O[C@@H]2O[C@@H](C)[C@@H](O)[C@@H](O)[C@@H]2O)[C@@H]1O[C@@H]1O[C@H](CO)[C@H](O)[C@H](O)[C@H]1O[C@@H]1O[C@@H](C)[C@@H](O)[C@@H](O)[C@@H]1O` (some centres unmarked) [Lewis B]: the Kd in assay [1] (setting [9]) was 0.395 ± 0.029 µM; in assay [4], over 100 µM.

Take `CC(=O)N[C@H]1[C@H](O[C@H]2[C@@H](O)[C@@H](CO)OC(O)[C@@H]2O)O[C@H](CO)[C@@H](O[C@@H]2O[C@H](CO)[C@H](O)[C@H](O)[C@H]2O)[C@@H]1O[C@@H]1O[C@@H](C)[C@@H](O)[C@@H](O)[C@@H]1O` (some centres unmarked) [Lewis X]: the Kd in assay [1] (setting [9]) was 0.501 ± 0.308 µM; in assay [2] (setting [10]), 18.9 ± 5.58 µM; in assay [3] (setting [11]) it was 16.5 ± 2.8 µM; in assay [4], over 100 µM.

Take `CO[C@H]1O[C@H](CO)[C@@H](O)[C@H](O)[C@@H]1O` [α-Methyl-mannose]: the Kd was 0.315 ± 0.103 µM in assay [5], over 100 µM in assay [6], over 100 µM in assay [7] and over 100 µM in assay [8].

Consider Blood group A, for which the Kd in assay [1] (setting [9]) is 0.0291 ± 0.0075 µM; in assay [2] (setting [10]) it was 1.53 ± 0.6 µM; in assay [3] (setting [11]) it was 0.0614 ± 0.0296 µM; in assay [4], over 100 µM.

Take Blood group H: the Kd is 0.428 ± 0.008 µM in assay [1] (setting [9]), 1.22 ± 0.49 µM in assay [2] (setting [10]), over 100 µM in assay [3] and over 100 µM in assay [4].

In the case of Lewis Y, the Kd is 8 ± 0.74 µM in assay [1] (setting [9]), 12.7 ± 2.47 µM in assay [2] (setting [10]), 55.5 ± 28.8 µM in assay [3] (setting [11]) and over 100 µM in assay [4].

Man5: the Kd in assay [1], in assay [2], in assay [3] and in assay [4] was over 100 µM throughout.

For the compound Sialyl-Lewis A, the Kd in assay [1] (setting [9]) was 2.39 ± 0.68 µM; in assay [2] (setting [10]), 71.8 ± 27.1 µM; in assay [3] (setting [11]), 72.1 ± 31.8 µM; in assay [4], over 100 µM.
